From US12042539B2, “Compositions and kits for Omeprazole suspension” (Azurity Pharmaceuticals, Inc., priority 2019, dated 2024)
Values after ≈ are worked out from the molar mass of the structure shown. Like-named read-outs stand apart in the source and are kept apart here. Values belong to the compound of their own block, whether it stands above or below them.

Key:
[1] = increase in poloxamer concentration beyond 10 mg/mL; cited from earlier work
[2] = Phase solubility of omeprazole at different concentrations of poloxamer 188; type: physicochemical; settings: for solubility: thermodynamic from solid, read-out: Soluble fraction
[3] = PXRD of reconstituted suspensions (polymorphic form of omeprazole API); type: physicochemical; settings: 3M and 6M Day 30, 25° C./60% RH and 2-8° C.
Method: To evaluate the polymorphic characteristic of omeprazole API during reconstitution stability studies, the reconstituted suspensions were analyzed by X-ray diffraction (XRD) at 3M and 6M time points at 25° C./60% RH and 2-8° C. conditions.

[4] = cited from earlier work
P-glycoprotein = P-glycoprotein (Homo sapiens, UniProt P08183); settings: cited from earlier work
P-glycoprotein, sequence (P08183 whole entry): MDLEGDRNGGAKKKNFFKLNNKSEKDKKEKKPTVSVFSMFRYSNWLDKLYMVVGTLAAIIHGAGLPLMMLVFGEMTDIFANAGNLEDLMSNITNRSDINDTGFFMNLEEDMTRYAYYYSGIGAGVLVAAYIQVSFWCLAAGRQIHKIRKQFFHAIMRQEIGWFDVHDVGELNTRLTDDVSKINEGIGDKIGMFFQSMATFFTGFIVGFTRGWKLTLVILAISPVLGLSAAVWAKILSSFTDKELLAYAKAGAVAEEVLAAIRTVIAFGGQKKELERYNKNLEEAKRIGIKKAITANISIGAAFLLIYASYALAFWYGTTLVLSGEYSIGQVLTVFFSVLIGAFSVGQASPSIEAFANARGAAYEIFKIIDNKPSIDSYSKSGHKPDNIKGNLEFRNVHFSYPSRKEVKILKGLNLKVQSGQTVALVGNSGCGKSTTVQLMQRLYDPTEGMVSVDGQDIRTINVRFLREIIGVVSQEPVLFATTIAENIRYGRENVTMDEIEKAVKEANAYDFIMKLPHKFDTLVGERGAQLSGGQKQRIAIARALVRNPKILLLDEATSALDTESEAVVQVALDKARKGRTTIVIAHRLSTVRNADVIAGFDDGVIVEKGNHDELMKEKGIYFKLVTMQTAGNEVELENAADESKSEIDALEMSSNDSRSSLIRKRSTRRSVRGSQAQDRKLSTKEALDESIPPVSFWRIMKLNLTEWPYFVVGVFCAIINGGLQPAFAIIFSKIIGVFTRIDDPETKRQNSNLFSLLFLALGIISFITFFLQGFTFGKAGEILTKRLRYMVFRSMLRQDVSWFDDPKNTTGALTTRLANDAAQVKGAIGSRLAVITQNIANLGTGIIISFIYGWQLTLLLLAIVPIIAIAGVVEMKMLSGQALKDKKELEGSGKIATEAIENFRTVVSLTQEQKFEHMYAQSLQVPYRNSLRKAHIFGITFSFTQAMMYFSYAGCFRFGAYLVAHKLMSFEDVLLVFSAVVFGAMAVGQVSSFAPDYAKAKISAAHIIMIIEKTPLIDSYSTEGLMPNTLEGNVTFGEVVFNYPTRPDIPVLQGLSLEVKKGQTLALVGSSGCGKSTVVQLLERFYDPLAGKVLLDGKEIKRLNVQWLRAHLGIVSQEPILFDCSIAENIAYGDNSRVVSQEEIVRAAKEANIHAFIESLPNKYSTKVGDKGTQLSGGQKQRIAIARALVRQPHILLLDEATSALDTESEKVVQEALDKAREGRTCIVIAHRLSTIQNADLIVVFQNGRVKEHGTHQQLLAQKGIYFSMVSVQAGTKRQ

[5] = cited from earlier work; remark: listed apart in the source
[6] = Related substance (omeprazole impurities) at stability time points; type: physicochemical; settings: Omeprazole API
Excerpt: Monitoring the trend of increase in chemical impurities/related substances is important with respect to stability of a formulation. Related substance data developed during stability studies of a formulation play a crucial role with respect to determining a useable shelf life for a formulation.
Specification: • a. […] 5-Methoxy-1H-Benzimidazol-2-thiol: NMT 0.50% • c. Omeprazole sulphone N-Oxide: NMT 0.50% • d. Omeprazole N-Oxide: NMT 0.50% • e. Omeprazole Sulphone: NMT 0.50% • f Omeprazole 4-Chloro analog (IMP-H): NMT 0.50% • g. Sulphide (Ufiprazole): NMT 0.50% • h. Desmethoxy Omeprazole: NMT 0.50% • i. Any other individual impurity: NMT 0.20% • j. Total impurities: NMT 2.0%

SMILES: CC(C)(C)NCC(O)COc1cccc2c1CC(O)C(O)C2 (centres unmarked) [nadolol]
- Effect of poloxamer on permeability [1]: didn't show a significant effect

- Soluble fraction (%) ([2]; 0 % w/v Poloxamer Content): 10.9%
- solubility ([2]; 0% w/v poloxamer 188 (base solvent not stated), 0 % w/v Poloxamer Content): 218 µg/mL (≈ 631 µM)
- Soluble fraction (%) ([2]; 0.5 % w/v Poloxamer Content): 15.6%
- Soluble fraction (%) ([2]; 1 % w/v Poloxamer Content): 17.1%
- Soluble fraction (%) ([2]; 2 % w/v Poloxamer Content): 47.8%
- Soluble fraction (%) ([2]; 4 % w/v Poloxamer Content): 47.3%
- Omeprazole solubility ([2]; at higher poloxamer 188 content (above 1% w/v)): increased significantly
- solubility ([2]; poloxamer 188 at 2% w/v (base solvent not stated), aqueous with cosolvent or surfactant or cyclodextrin, 2 % w/v Poloxamer Content): 957 µg/mL (≈ 2770 µM)
- solubility ([2]; poloxamer 188 at 4% w/v (base solvent not stated), aqueous with cosolvent or surfactant or cyclodextrin, 4 % w/v Poloxamer Content): 946 µg/mL (≈ 2740 µM)
- solubility ([2]; poloxamer 188 solution (0.5% w/v), aqueous with cosolvent or surfactant or cyclodextrin, 0.5 % w/v Poloxamer Content): 313 µg/mL (≈ 906 µM)
- solubility ([2]; poloxamer 188 solution (1% w/v), aqueous with cosolvent or surfactant or cyclodextrin, 1 % w/v Poloxamer Content): 342 µg/mL (≈ 990 µM)
- Impact of poloxamer 188 content on omeprazole solubility ([2]; up to 1% w/v poloxamer 188): did not show any significant impact
- Polymorphic form conversion (PXRD) [3]: no polymorphic form conversion
- Related Substance: Omeprazole F&G [6]: 0.031%
- Related Substance: Omeprazole sulphone N-Oxide [6]: Not Detected
- Related Substance: Total impurities [6]: 0.05%
- Related Substance: 5-Methoxy Benzamidazole 2 thiol ([6]; LOQ (0.01%)): Less than LOQ
- Related Substance: Desmethoxy Omeprazole ([6]; LOQ (0.01%)): Less than LOQ
- Related Substance: Omeprazole 4-Chloro analog (IMP-H) ([6]; LOQ (0.01%)): Less than LOQ
- Related Substance: Omeprazole N-Oxide ([6]; LOQ (0.01%)): Less than LOQ
- Related Substance: Omeprazole Sulphide ([6]; LOQ (0.01%)): Less than LOQ
- Related Substance: Omeprazole Sulphone (IMP-A) ([6]; LOQ (0.01%)): Less than LOQ
SMILES: COc1ccc2[nH]c([S+]([O-])Cc3ncc(C)c(OC)c3C)nc2c1 (centres unmarked) [Omeprazole]
- Log P [4]: 2.43
- solubility ([4]; in water): Very slightly soluble in water
- P-gp inhibition effects (P-glycoprotein): does not have P-gp inhibition effects
- P-gp substrate (P-glycoprotein): moderate P-gp substrate
- half-life ([5]; in vivo): 30 to 60 min
- Peak Plasma concentration, time to achieve ([5]; marketed formulations of omeprazole): very rapidly
